Reference: US11066414B2, “Cot modulators and methods of use thereof” (Gilead Sciences, Inc., priority 2015, dated 2021)
Like-named read-outs stand apart in the source and are kept apart here.

Assays:
Human Cot = Human Cot (Homo sapiens (Human), UniProt P41279); assay: High Throughput Cot Biochemical Assay
TNFα = assay: Cot Monocyte TNFα Cell Based Assay
[1] = IC50 HTRF, Cot HTRF (TR-FRET) biochemical assay
[2] = Homo sapiens, Monocyte, read-out: EC50 TNF, LPS-stimulated human monocytes, TNFα

Sequence of Human Cot (P41279 30-397): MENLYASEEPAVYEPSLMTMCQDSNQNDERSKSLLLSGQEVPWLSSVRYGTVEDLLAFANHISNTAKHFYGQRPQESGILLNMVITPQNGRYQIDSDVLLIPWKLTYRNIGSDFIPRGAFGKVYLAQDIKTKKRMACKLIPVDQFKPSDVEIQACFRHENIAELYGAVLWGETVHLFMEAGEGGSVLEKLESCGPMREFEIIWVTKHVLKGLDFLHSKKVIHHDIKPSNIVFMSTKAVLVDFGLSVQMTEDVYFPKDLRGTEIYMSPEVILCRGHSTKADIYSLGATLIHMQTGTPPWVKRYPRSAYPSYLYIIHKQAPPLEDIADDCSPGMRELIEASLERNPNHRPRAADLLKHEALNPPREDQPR

Row | Structure (SMILES) | IC50 (Human Cot; [1]) [nM] | EC50 (TNFα; [2]) [nM] | other results
1 | CC(C)(C)CNc1c(C#N)cnc2c(Cl)cc(N[C@H](c3cn(C4(C(F)(F)F)CC4)nn3)c3cccc4cnccc34)cc12 [Example 462, (S)-8-chloro-6-((isoquinolin-5-yl(1-(1-(trifluoromethyl)cyclopropyl)-1H-1,2,3-triazol-4-yl)methyl)amino)-4-(neopentylamino)quinoline-3-carbonitrile] | 162 | 8770 | –
2 | CC(C)(C)CNc1c(C#N)cnc2c(C#N)cc(N[C@H](c3cn(C4(C(N)=O)CC4)nn3)c3cccc4ncsc34)cc12 [Example 409, (S)-1-(4-(benzo[d]thiazol-7-yl((3,8-dicyano-4-(neopentylamino)quinolin-6-yl)amino)methyl)-1H-1,2,3-triazol-1-yl)cyclopropane-1-carboxamide] | 1 | 559 | –
3 | CC(=O)c1cc(N[C@H](c2cn(C3(C(F)F)CC3)nn2)c2ccc(F)nc2C)cc2c(NCC(C)(C)C)c(C#N)cnc12 [Example 981, (S)-8-acetyl-6-(((1-(1-(difluoromethyl)cyclopropyl)-1H-1,2,3-triazol-4-yl)(6-fluoro-2-methylpyridin-3-yl)methyl)amino)-4-(neopentylamino)quinoline-3-carbonitrile] | – | – | IC50 (Human Cot; IC50 HTRF, Cot HTRF (TR-FRET KinEASE) biochemical assay, 400 μM ATP): 4 nM; EC50 (TNFα; Homo sapiens, Monocyte, read-out: EC50 TNF, LPS-stimulated human monocytes, TNFα TR-FRET): 20 nM
4 | CC(C)n1cc([C@@H](Nc2cc(Cl)c3ncc(C#N)c(Nc4ccc(F)c(Cl)c4)c3c2)c2csc3c2CCNC3)nn1 [Example 346, (S)-8-chloro-4-((3-chloro-4-fluorophenyl)amino)-6-(((1-isopropyl-1H-1,2,3-triazol-4-yl)(4,5,6,7-tetrahydrothieno[2,3-c]pyridin-3-yl)methyl)amino)quinoline-3-carbonitrile] | 3 | 208 | –
5 | N#Cc1cnc2c(Cl)cc(N[C@H](c3c[nH]nn3)c3csc4c3CCN(C3COC3)C4)cc2c1Nc1cccc(Cl)c1F [Example 246, (S)-8-chloro-4-((3-chloro-2-fluorophenyl)amino)-6-(((6-(oxetan-3-yl)-4,5,6,7-tetrahydrothieno[2,3-c]pyridin-3-yl)(1H-1,2,3-triazol-4-yl)methyl)amino)quinoline-3-carbonitrile] | 6 | 652 | –
6 | CC(C)(C)CNc1c(C#N)cnc2c(Cl)cc(N[C@H](c3cn(C4(C(N)=O)CC4)nn3)c3cccc4ncsc34)cc12 [Example 416, (S)-1-(4-(benzo[d]thiazol-7-yl((8-chloro-3-cyano-4-(neopentylamino)quinolin-6-yl)amino)methyl)-1H-1,2,3-triazol-1-yl)cyclopropane-1-carboxamide] | 2 | 124 | –
7 | Cn1ccc2c([C@H](Nc3cc(Cl)c4ncc(C#N)c(NCC(C)(C)C(F)(F)F)c4c3)c3cn(C4(C)CC4)nn3)cccc2c1=O [Example 781, (S)-8-chloro-6-(((2-methyl-1-oxo-1,2-dihydroiso-quinolin-5-yl)(1-(1-methylcyclopropyl)-1H-1,2,3-triazol-4-yl)methyl)amino)-4-((3,3,3-trifluoro-2,2-dimethylpropyl)amino)quinoline-3-carbonitrile] | – | – | IC50 (Human Cot; read-out: IC50 HTRF, Cot HTRF (TR-FRET) biochemical assay): 2 nM; EC50 (TNFα; read-out: EC50 TNF, LPS-stimulated human monocytes, TNFα): 22 nM
8 | [2H][C@](Nc1cc(Cl)c2ncc(C#N)c(N[C@H](CC#N)c3ccccc3)c2c1)(c1ccc(F)nc1)c1cn(C2CC2)nn1 [Example 129, 8-chloro-4-(((R)-2-cyano-1-phenylethyl)amino)-6-(((S)-(1-cyclopropyl-1H-1,2,3-triazol-4-yl)(6-fluoropyridin-3-yl)methyl-d)amino)quinoline-3-carbonitrile] | 2 | 81 | –
9 | N#Cc1cnc2c(Cl)cc(N[C@@H](c3cccnc3)c3cn(CCN4CCCCC4)nn3)cc2c1Nc1ccc(F)c(Cl)c1 [Example 334, (S)-8-chloro-4-((3-chloro-4-fluorophenyl)amino)-6-(((1-(2-(piperidin-1-yl)ethyl)-1H-1,2,3-triazol-4-yl)(pyridin-3-yl)methyl)-amino)quinoline-3-carbonitrile] | 4 | 82 | –
10 | Cc1nc(F)ccc1[C@H](Nc1cc(Cl)c2ncc(C#N)c(NCC(C)(C)C)c2c1)c1cn(C2(C(F)F)CC2)nn1 [Example 447, (S)-8-chloro-6-(((1-(1-(difluoromethyl)-cyclopropyl)-1H-1,2,3-triazol-4-yl)(6-fluoro-2-methylpyridin-3-yl)methyl)-amino)-4-(neopentylamino)quinoline-3-carbonitrile] | 2 | 40 | –
11 | COc1nccc2c([C@H](Nc3cc(C#N)c4ncc(C#N)c(NCC(C)(C)C(F)(F)F)c4c3)c3cn(C4(C(F)F)CC4)nn3)cccc12 [Example 821] | – | – | IC50 (Human Cot; read-out: IC50 HTRF, Cot HTRF (TR-FRET KinEASE) biochemical assay, 400 μM ATP): 3 nM; EC50 (TNFα; read-out: EC50 TNF, LPS-stimulated human monocytes, TNFα TR-FRET): 60 nM
12 | Cc1ncccc1[C@H](Nc1cc(Cl)c2ncc(C#N)c(Nc3ccc(Cl)c(Cl)c3F)c2c1)c1cn(C2CCN(C(C)(C)C)CC2)nn1 [Example 233, (S)-6-(((1-(1-(tert-butyl)piperidin-4-yl)-1H-1,2,3-triazol-4-yl)(2-methylpyridin-3-yl)methyl)amino)-8-chloro-4-((3,4-dichloro-2-fluorophenyl)amino)quinoline-3-carbonitrile] | 8 | 114 | –
13 | Cn1ccc2c([C@H](Nc3cc(Cl)c4ncc(C#N)c(NCC5(C(F)(F)F)CCC5)c4c3)c3cn(C4(C(F)F)CC4)nn3)cccc2c1=O [Example 730, (S)-8-chloro-6-(((1-(1-(difluoromethyl)cyclopropyl)-1H-1,2,3-triazol-4-yl)(2-methyl-1-oxo-1,2-dihydroisoquinolin-5-yl)methyl)amino)-4-(((1-(trifluoromethyl)cyclobutyl)methyl)-amino)quinoline-3-carbonitrile] | 10 | 89 | –
14 | CC(C)(C)CNc1c(C#N)cnc2c(C#N)cc(N[C@H](c3cn(C4(C)CC4)nn3)c3cccc4ncsc34)cc12 [Example 435, (S)-6-((benzo[d]thiazol-7-yl(1-(1-methylcyclopropyl)-1H-1,2,3-triazol-4-yl)methyl)amino)-4-(neopentylamino)-quinoline-3,8-dicarbonitrile] | 1 | 24 | –
15 | CC[C@@H](Nc1c(C#N)cnc2c(Cl)cc(N[C@H](c3cn(C4(C(F)(F)F)CC4)nn3)c3ccc(F)nc3C)cc12)c1ccccc1 [Example 440, 8-chloro-6-(((S)-(6-fluoro-2-methyl-pyridin-3-yl)(1-(1-(trifluoromethyl)-cyclopropyl)-1H-1,2,3-triazol-4-yl)methyl)amino)-4-(((R)-1-phenyl-propyl)amino)quinoline-3-carbonitrile] | 7 | 171 | –
16 | N#Cc1cnc2c(Cl)cc(N[C@@H](C3=CCOCC3)c3cn(C4COC4)nn3)cc2c1Nc1ccc(Cl)c(Cl)c1F [Example 210, (S)-8-chloro-4-((3,4-dichloro-2-fluorophenyl)amino)-6-(((3,6-dihydro-2H-pyran-4-yl)(1-(oxetan-3-yl)-1H-1,2,3-triazol-4-yl)methyl)amino)quinoline-3-carbonitrile] | 10 | 424 | –

The next lines start with results.

Row | IC50 (Human Cot; [1]) [nM] | EC50 (TNFα; [2]) [nM] | Structure (SMILES) | other results
17 | 20 | 394 | Cc1nc(F)ccc1[C@H](Nc1cc(Cl)c2ncc(C#N)c(NCC(C)(C)CO)c2c1)c1cn(C2(C(F)(F)F)CC2)nn1 [Example 534, (S)-8-chloro-6-(((6-fluoro-2-methylpyridin-3-yl)(1-(1-(trifluoromethyl)cyclopropyl)-1H-1,2,3-triazol-4-yl)methyl)amino)-4-((3-hydroxy-2,2-dimethylpropyl)amino)-quinoline-3-carbonitrile] | –
18 | 2 | 26 | Cc1nc(F)ccc1[C@H](Nc1cc(C#N)c2ncc(C#N)c(NCC(C)(C)C)c2c1)c1nnn(C2CC2)c1F [Example 681, (S)-6-(((1-cyclopropyl-5-fluoro-1H-1,2,3-triazol-4-yl)(6-fluoro-2-methylpyridin-3-yl)methyl)amino)-4-(neopentylamino)quinoline-3,8-dicarbonitrile] | –
19 | 3 | 150 | CCc1nc(F)ccc1[C@H](Nc1cc(C#N)c2ncc(C#N)c(NCC(C)(C)C)c2c1)c1cn(C2(C(F)F)CC2)nn1 [Example 597, (S)-6-(((1-(1-(difluoromethyl)cyclopropyl)-1H-1,2,3-triazol-4-yl)(2-ethyl-6-fluoropyridin-3-yl)methyl)amino)-4-(neopentylamino)quinoline-3,8-dicarbonitrile] | –
20 | 2 | 199 | Cc1nc(F)ccc1[C@H](Nc1cc(C#N)c2ncc(C#N)c(NCC(C)(C)C)c2c1)c1cn(C2(CO)CC2)nn1 [Example 610, (S)-6-(((6-fluoro-2-methylpyridin-3-yl)(1-(1-(hydroxymethyl)cyclopropyl)-1H-1,2,3-triazol-4-yl)methyl)amino)-4-(neopentylamino)quinoline-3,8-dicarbonitrile] | –
21 | 5 | 57 | Cc1nc(F)ccc1[C@H](Nc1cc(Cl)c2ncc(C#N)c(NCC(C)(C)C)c2c1)c1cn(CC2(C(F)F)CC2)nn1 [Example 752, (S)-8-chloro-6-(((1-((1-(difluoromethyl)cyclopropyl)-methyl)-1H-1,2,3-triazol-4-yl)(6-fluoro-2-methylpyridin-3-yl)methyl)amino)-4-(neopentylamino)quinoline-3-carbonitrile] | –
22 | 5 | 78 | Cc1nc(F)ccc1[C@H](Nc1cc(Cl)c2ncc(C#N)c(NCC(C)(C)C)c2c1)c1cn(C2(C#N)CCC2)nn1 [Example 479, (S)-8-chloro-6-(((1-(1-cyanocyclobutyl)-1H-1,2,3-triazol-4-yl)(6-fluoro-2-methylpyridin-3-yl)methyl)amino)-4-(neopentylamino)quinoline-3-carbonitrile] | –
